The values that follow come from patent US11802147B2, “High affinity monoclonal antibodies for detecting amanitins” (priority 2019, dated 2023).

≈ marks a conversion by molar mass, not a printed value. Where two headings read alike, the source gives them in different places. Starred links: 1 amine or outer side, 2 acyl side, 3 side chain; linkers in the order of their positions; H or OH if unused. Positions of bridges follow the written chain, without caps; N, C: chain ends. Non-standard residues stand in square brackets, D forms with d. Residues, ends and D or L forms follow the SMILES beside them. ξ: configuration not given here. Adda = CO[C@@H](Cc1ccccc1)[C@@H](C)/C=C(C)/C=C/[C@H](N[*:1])[C@H](C)C(=O)[*:2]; Trp(2-yl) = O=C([C@H](Cc1c([*:3])[nH]c2ccccc12)N[*:1])[*:2]; dAsp(3S-Me) = C[C@H](C(=O)[*:3])[C@@H](N[*:1])C(=O)[*:2]; ξTrp(2-yl) = O=C(C(Cc1c([*:3])[nH]c2ccccc12)N[*:1])[*:2]; Leu(4R-OH,5-OH) = C[C@](O)(CO)C[C@H](N)C(=O)O; d(γGlu) = O=C(O)[C@@H](CCC(=O)[*:2])N[*:1]; X1 = CC(O)(CO)CC(N[*:1])C(=O)[*:2]; cisHyp = O=C(O)[C@@H]1C[C@H](O)CN1; ξAsp(3ξ-OH) = NC(C(=O)O)C(O)C(=O)O; Hyp = O=C(O)[CH]1C[CH](O)CN1; NMeDha = C=C(NC)C(=O)O

One assay concerns mAb 9G3.2. In kind it is binding, mouse. The settings on record: for competitive inhibition of mAb 9G3.2: cELISA, up to 1,000 ng/mL; for recognition by mAb 9G3.2: statement of deposit.
In a further assay the test system is mAb 9C12.2. The class given is binding, mouse. The conditions noted are these: for competitive inhibition of mAb 9C12.2: cELISA, up to 1,000 ng/mL; for recognition by mAb 9C12.2: statement of deposit.
A further assay relates to mAb AMA9G3. In kind it is binding, mouse. Further details: concentration at which test strips detect: unit not given here. The conditions noted are these: for concentration giving complete inhibition of the signal: either hapten as test line; for CR (cross-reactivity): lateral flow test strips.
Assay [1] deals with Previously described mAbs to amatoxins. The conditions noted are these: He et al; cited from earlier work.
[2] abbreviates: mAb 9G3.2, (IC50 α-AMA)/(IC50 test inhibitor)×100.
[3] abbreviates: mAb 9G3.2, inhibitor mixed with antibody, PERI-AMA-BSA coated plate.
Where [4] appears, read: mAb 9C12.2, (IC50 α-AMA)/(IC50 test inhibitor)×100.
The mark [5] stands for this setting: mAb 9C12.2, inhibitor mixed with antibody, PERI-AMA-BSA coated plate.
Setting [6] is: cross-reactivity with near neighbor compounds.

For `NCc1cc(=O)[nH]o1` [muscimol], the Cross reactivity in the assay with mAb 9G3.2 (setting [2]) and in the assay with mAb 9C12.2 (setting [4]) was below 0.3% in each case. Moreover, the IC50 in the assay with mAb 9G3.2 (setting [3]) and with mAb 9C12.2 (setting [5]) was above 1 µg/mL throughout. For the same compound, in the assay on mAb AMA9G3 (setting [6]), the “detection by test strips” value was “did not detect”.
With `C/C=C1/C(=O)N[C@@H](C(=O)O)[C@H](C)C(=O)N[C@@H](CCCNC(=N)N)C(=O)N[C@@H](/C=C/C(C)=C/[C@H](C)[C@H](Cc2ccccc2)OC)[C@H](C)C(=O)N[C@@H](C(=O)O)CCC(=O)N1C` [nodularin], in the assay with mAb 9G3.2, the Cross reactivity was below 0.3% and the IC50 is above 1 µg/mL. In the assay with mAb 9C12.2, the Cross reactivity was below 0.3% and the IC50 was above 1 µg/mL. The “detection by test strips” value in the assay on mAb AMA9G3 is “did not detect”.
For `CC[C@H](C)[C@@H]1NC(=O)CNC(=O)[C@@H]2Cc3c([nH]c4cc(O)ccc34)[S+]([O-])C[C@@H](NC(=O)CNC1=O)C(=O)N[C@@H](CC(N)=O)C(=O)N1C[C@H](O)C[C@H]1C(=O)N[C@@H]([C@@H](C)[C@@H](O)CO)C(=O)N2` (stereo in doubt) [α-amanitin], in the assay on mAb 9G3.2, the “competitive inhibition of mAb 9G3.2” value was “competitively inhibited” and the “recognition by mAb 9G3.2” value is listed as “recognizes”. For the same compound, the Cross reactivity with mAb 9G3.2 (setting [2]) came to 100%. Further, in the assay with mAb 9G3.2 (setting [3]), the IC50 was 0.00157 µg/mL (≈ 0.00171 µM). In addition, in the assay on mAb 9C12.2, the “competitive inhibition of mAb 9C12.2” value is “competitively inhibited” and the “recognition by mAb 9C12.2” value is on record as “recognizes”. Also, the Cross reactivity in the assay with mAb 9C12.2 (setting [4]) turned out to be 100%. The IC50 in the assay with mAb 9C12.2 (setting [5]) worked out at 0.00266 ± 0.00018 µg/mL (≈ 0.00289 µM). Besides, the “concentration giving complete inhibition of the signal” value in the assay with mAb AMA9G3 worked out at 10 ng/mL. For the same compound, in assay [1], the “IC50 of previously described mAbs” value was 0.066 µg/mL.
For γ-amanitin, the “competitive inhibition of mAb 9G3.2” value in the assay on mAb 9G3.2 is recorded as “competitively inhibited”. The Cross reactivity with mAb 9G3.2 (setting [2]) is given as 96%; in the assay on mAb 9C12.2 (setting [4]), 115%. Besides, the IC50 came to 0.00163 ± 0.00021 µg/mL with mAb 9G3.2 (setting [3]) and 0.0023 ± 0.00031 µg/mL with mAb 9C12.2 (setting [5]). Moreover, the “recognition by mAb 9G3.2” value with mAb 9G3.2 is on record as “recognizes”. The “competitive inhibition of mAb 9C12.2” value in the assay on mAb 9C12.2 is listed as “competitively inhibited”. For the same compound, in the assay with mAb AMA9G3, the “concentration giving complete inhibition of the signal” value came to 10 ng/mL.
Consider `N[C@H](C(=O)O)c1cc(=O)[nH]o1` [ibotenic acid], for which the Cross reactivity with mAb 9G3.2 (setting [2]) and in the assay on mAb 9C12.2 (setting [4]) was below 0.3% in each case. Moreover, the IC50 with mAb 9G3.2 (setting [3]) and with mAb 9C12.2 (setting [5]) was above 1 µg/mL throughout. Besides, the “detection by test strips” value with mAb AMA9G3 (setting [6]) is given as “did not detect”.
With `C[C@@H]1NC(=O)[C@H](C[C@@](C)(O)CO)NC(=O)[C@@H]2Cc3c([nH]c4ccccc34)SC[C@H](NC(=O)[C@@H]([C@H](C)O)NC1=O)C(=O)N1C[C@@H](O)C[C@H]1C(=O)N[C@@H](C)C(=O)N2` [phalloidin] (cyclo(A[dT]C[cisHyp]A[Trp(2-yl)][Leu(4R-OH,5-OH)]); thioether 3-6), the Cross reactivity in the assay on mAb 9G3.2 (setting [2]) and in the assay on mAb 9C12.2 (setting [4]) was below 0.3% each time. The IC50 with mAb 9G3.2 (setting [3]) and in the assay on mAb 9C12.2 (setting [5]) was above 1 µg/mL in each case. Also, in the assay on mAb AMA9G3, the “CR (cross-reactivity)” value came to 0.005%.
For β-amanitin, the “competitive inhibition of mAb 9G3.2” value with mAb 9G3.2 is given as “competitively inhibited”. The values for the Cross reactivity in the assay on mAb 9G3.2 (setting [2]) and with mAb 9C12.2 (setting [4]) were 6.5% and below 0.3%, respectively. For the same compound, the values for the IC50 in the assay with mAb 9G3.2 (setting [3]) and with mAb 9C12.2 (setting [5]) were 0.0242 ± 0.0062 µg/mL and above 1 µg/mL, respectively. Besides, the “recognition by mAb 9G3.2” value with mAb 9G3.2 is “recognizes”. The “competitive inhibition of mAb 9C12.2” value in the assay with mAb 9C12.2 was “no reduction in signal response”. In the assay with mAb 9C12.2, the “recognition by mAb 9C12.2” value is “recognizes”.
For the compound `CC1NC(=O)C2CC(O)CN2C(=O)C2CSc3[nH]c4ccccc4c3CC(NC1=O)C(=O)NC(CC(C)(O)CO)C(=O)NC(C(C)C)C(=O)NC(C(O)C(=O)O)C(=O)N2` (stereo not drawn) [phallacidin] (cyclo([ξAsp(3ξ-OH)]C[Hyp]A[ξTrp(2-yl)][X1]V); thioether 2-5; configuration not given here), the Cross reactivity with mAb 9G3.2 (setting [2]) and in the assay with mAb 9C12.2 (setting [4]) was below 0.3% throughout. Moreover, the IC50 in the assay with mAb 9G3.2 (setting [3]) and in the assay on mAb 9C12.2 (setting [5]) was above 1 µg/mL throughout. For the same compound, in the assay with mAb AMA9G3 (setting [6]), the “concentration at which test strips detect” value came to 200. The “CR (cross-reactivity)” value in the assay with mAb AMA9G3 stood at 0.005%.
Consider `C=C1C(=O)N[C@H](C)C(=O)N[C@@H](CC(C)C)C(=O)N[C@@H](C(=O)O)[C@H](C)C(=O)N[C@@H](CCCNC(=N)N)C(=O)N[C@@H](/C=C/C(C)=C/[C@H](C)[C@H](Cc2ccccc2)OC)[C@H](C)C(=O)N[C@@H](C(=O)O)CCC(=O)N1C` [microcystin-LR] (R[Adda][d(γGlu)][NMeDha][dA]L[dAsp(3S-Me)]-OH; lactam N-7), for which, in the assay on mAb 9G3.2, the Cross reactivity is below 0.3% and the IC50 was above 1 µg/mL. In the assay with mAb 9C12.2, the Cross reactivity was below 0.3% and the IC50 was above 1 µg/mL. The “detection by test strips” value with mAb AMA9G3 is given as “did not detect”.
